Results published in article PMC8448983 (European journal of medicinal chemistry, 2021).
Like-named read-outs stand apart in the source and are kept apart here. Marks after values point to notes of the source that are not given here.

Tests used:
[1] = tested on: human blood platelets; assay: ADP-induced platelet aggregation in platelet-rich plasma; type: cell-based; conditions: 10 μM ADP, mean ± SD, n = 6–9
[2] = molecular target: T1, human A1 adenosine receptor (Homo sapiens, UniProt P30542); assay: Radioligand binding, HEK293 cells expressing human A1 receptor; conditions: for percent of inhibition, A1 AR: 10 μM compound
T1 sequence (P30542 1-326): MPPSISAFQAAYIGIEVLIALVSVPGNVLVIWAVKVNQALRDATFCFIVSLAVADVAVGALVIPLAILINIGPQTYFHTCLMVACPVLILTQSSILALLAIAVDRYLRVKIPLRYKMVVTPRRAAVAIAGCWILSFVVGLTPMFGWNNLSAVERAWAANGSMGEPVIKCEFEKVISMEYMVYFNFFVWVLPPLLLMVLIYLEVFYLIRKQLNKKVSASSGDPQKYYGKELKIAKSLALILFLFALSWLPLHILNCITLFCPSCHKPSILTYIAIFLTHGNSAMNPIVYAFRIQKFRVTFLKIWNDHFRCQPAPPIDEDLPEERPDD

[3] = molecular target: T2, human A3 adenosine receptor (Homo sapiens, UniProt P0DMS8); assay: Radioligand binding, HEK293 cells expressing human A3 receptor; conditions: for percent of inhibition, A3 AR: 10 μM compound, agonist radioligand; for percent of inhibition, A3 AR / Ki: NIH laboratory, HEK293; for activity class (active / inactive) in SAR and selectivity analysis / receptor selectivity class: compounds 33–52, NIH binding data; for Ki: read-out: Ki, A3 AR, [125I]-N6-(4-amino-3-iodobenzyl)adenosine-5′-N-methyluronamide
T2 sequence (P0DMS8 1-318): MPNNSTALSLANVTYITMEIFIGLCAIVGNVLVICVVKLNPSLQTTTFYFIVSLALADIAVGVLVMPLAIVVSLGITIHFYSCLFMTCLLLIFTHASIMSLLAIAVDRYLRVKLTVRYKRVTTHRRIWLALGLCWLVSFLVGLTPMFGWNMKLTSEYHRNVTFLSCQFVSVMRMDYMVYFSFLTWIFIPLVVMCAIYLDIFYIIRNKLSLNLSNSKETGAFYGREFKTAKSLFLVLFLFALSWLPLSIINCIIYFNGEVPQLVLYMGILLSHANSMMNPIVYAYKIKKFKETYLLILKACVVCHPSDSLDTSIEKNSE

[4] = molecular target: T3, human A2A adenosine receptor (Homo sapiens, UniProt P29274); assay: Radioligand binding, HEK293 cells expressing human A2A receptor; conditions: for percent of inhibition, A2A AR: 10 μM compound, NIH laboratory, agonist radioligand
[5] = molecular target: T1, human A1 adenosine receptor; conditions: 10 μM compound; USEF; CHO-A1 membranes; 1 nM [3H]-DPCPX
[6] = molecular target: T3, human A2A adenosine receptor; conditions: 10 μM compound; USEF; HeLa-A2A membranes; 3 nM [3H]-ZM241385
[7] = molecular target: T4, human A2B adenosine receptor (Homo sapiens, UniProt P29275); conditions: USEF, HEK-A2B membranes, 25 nM [3H]-DPCPX; for percent of inhibition, A2B AR: 10 μM compound
T4 sequence (P29275 1-332): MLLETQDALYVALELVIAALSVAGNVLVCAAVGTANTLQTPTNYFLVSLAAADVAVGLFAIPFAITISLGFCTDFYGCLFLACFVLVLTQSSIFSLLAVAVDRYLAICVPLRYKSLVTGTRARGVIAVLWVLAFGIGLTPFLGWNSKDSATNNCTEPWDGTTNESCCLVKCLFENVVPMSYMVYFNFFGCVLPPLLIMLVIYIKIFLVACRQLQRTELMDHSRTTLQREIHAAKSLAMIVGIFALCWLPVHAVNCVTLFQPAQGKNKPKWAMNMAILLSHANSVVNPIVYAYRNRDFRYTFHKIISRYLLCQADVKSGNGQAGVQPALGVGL

[8] = molecular target: T2, human A3 adenosine receptor; conditions: for percent of inhibition, A3 AR: 10 μM compound; for percent of inhibition, A3 AR / Ki: USEF, HeLa-A3 membranes, 10 nM [3H]-NECA; for activity class (active / inactive) in selectivity analysis / receptor selectivity class: N6 carborane derivatives, USEF binding data; for Ki: read-out: Ki, A3 AR
[9] = molecular target: T5, human A3 receptor (Homo sapiens, UniProt P0DMS8); assay: Functional cAMP assay in CHO-A3 cells; type: cell-based; conditions: for KB (antagonist mode; functional character at A3): inhibition of NECA (0.1 μM) effect on cAMP; for % Emax: maximal agonist effect; for EC50: read-out: EC50 (cAMP), agonist mode
T5 sequence (P0DMS8 1-318): T2 sequence (P0DMS8 1-318)

[10] = NIH laboratory, HEK293, [3H]-N6-R-phenylisopropyladenosine

T3 sequence (P29274 whole entry): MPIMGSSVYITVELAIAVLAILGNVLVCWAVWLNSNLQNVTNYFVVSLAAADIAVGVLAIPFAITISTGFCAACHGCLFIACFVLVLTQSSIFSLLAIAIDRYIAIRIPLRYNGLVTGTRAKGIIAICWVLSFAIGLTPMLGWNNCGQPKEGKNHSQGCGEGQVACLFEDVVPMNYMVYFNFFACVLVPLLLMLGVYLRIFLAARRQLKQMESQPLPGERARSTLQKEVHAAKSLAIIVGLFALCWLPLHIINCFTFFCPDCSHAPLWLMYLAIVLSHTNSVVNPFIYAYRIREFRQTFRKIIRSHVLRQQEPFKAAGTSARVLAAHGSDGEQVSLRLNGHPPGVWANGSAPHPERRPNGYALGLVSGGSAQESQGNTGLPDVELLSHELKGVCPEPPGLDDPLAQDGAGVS

| Compound | area under the aggregation curve, ADP-induced platelet aggregation ([1]; 10 μM compound) | area under the aggregation curve, ADP-induced platelet aggregation ([1]; 50 μM compound) | percent of inhibition, A1 AR [2, 10] | percent of inhibition, A2A AR [4] | activity class (active / inactive) in SAR and selectivity analysis [3] | receptor selectivity class [3] | further results |
| --- | --- | --- | --- | --- | --- | --- | --- |
| N^6-[3-(1,12-Dicarba-closo-dodecaboran-1-yl)propyl]adenosine [Compound 39] | 678.4 ± 55.7 arbitrary units | 658.0 ± 46.8 arbitrary units | 32 ± 1% | 0 ± 1% | – | – | percent of inhibition, A3 AR [3]: 0 ± 12% |
| 2-ethynyl-(1,12-dicarba-closo-dodecaboran-2-yl) arabinoadenosine [Compound 47] | – | – | 15 ± 1% | 17 ± 2.7% | active | A3 selective | Ki [3]: 4390 ± 2020 nM |
| N^6-[(1,12-dicarba-closo-dodecaboran-1-yl)prop-3-yl]-5′-ethylcarbamoyl adenosine [Compound 17] | 646.2 ± 58.6 arbitrary units | 639.5 ± 64.7 arbitrary units | – | – | – | – | percent of inhibition, A1 AR [5]: 18 ± 3 %^a; percent of inhibition, A2A AR [6]: 1 ± 1 %^a; percent of inhibition, A2B AR [7]: 4 ± 4 %^a; percent of inhibition, A3 AR [8]: 34 ± 4 %^a; activity class (active / inactive) in selectivity analysis [8]: inactive |
| N^6-[3-(1,12-dicarba-closo-dodecaboran-1-yl)propyl]-2-chloro-2′-deoxyadenosine [Compound 27] | – | – | – | – | – | – | percent of inhibition, A1 AR [5]: 25 ± 1 %^a; percent of inhibition, A2A AR [6]: 1 ± 1 %^a; Ki ([7]; read-out: Ki, A2B AR): 4670 nM; percent of inhibition, A3 AR [8]: 10 ± 3 %^a |
| Nc1ncnc2c1nc(CCc1ccccc1)n2[C@H]1C[C@H](O)[C@@H](CO)O1 [Compound 52] | – | – | – | – | inactive | – | – |
| 2-Ethynyl-(1,12-dicarba-closo-dodecaboran-1-yl)adenosine [Compound 41] | – | – | – | – | active | not selective | Ki ([2]; read-out: Ki, A1 AR, NIH laboratory, HEK293, [3H]-N6-R-phenylisopropyladenosine): 2870 ± 1690 nM; Ki [3]: 206 ± 31 nM; Ki ([4]; read-out: Ki, A2A AR, NIH laboratory, [3H]-2-[p-(2-carboxyethyl)phenyl-ethylamino]-5′-N-ethylcarboxamidoadenosine): 3070 ± 530 nM |
| 8-[2-(1,12-dicarba-closo-dodecaboran-1-yl)ethynyl]-2′-deoxyadenosine [Compound 43] | – | – | 6 ± 6% | 10 ± 5% | inactive | – | percent of inhibition, A3 AR [3]: 1 ± 8% |
| N^6-[(1,12-dicarba-closo-dodecaboran-1-yl)but-4-yl]-5′-ethylcarbamoyl-adenosine [Compound 15] | 698.7 ± 74.4 arbitrary units | 657.1 ± 70.7 arbitrary units | – | – | – | – | KB (antagonist mode; functional character at A3) [9]: no antagonist; % Emax [9]: 99%; EC50 [9]: 1010 nM; percent of inhibition, A1 AR [5]: 40 ± 2 %^a; percent of inhibition, A2A AR [6]: 9 ± 1 %^a; percent of inhibition, A2B AR [7]: 7 ± 2 %^a; activity class (active / inactive) in selectivity analysis [8]: active; receptor selectivity class [8]: A3 AR selective; Ki [8]: 437 nM |
| 8-[2-(1,12-dicarba-closo-dodecaboran-1-yl)ethyl]-adenosine [Compound 35] | 665.7 ± 86.8 arbitrary units | 682.3 ± 17.4 arbitrary units | 16 ± 7% | 18 ± 4% | inactive | – | percent of inhibition, A3 AR [3]: 9 ± 13% |
| Nc1ncnc2c1nc(C#Cc1ccccc1)n2[C@H]1C[C@H](O)[C@@H](CO)O1 [Compound 44] | – | – | – | – | active | not selective | – |
| Nc1ncnc2c1nc(CCc1ccccc1)n2[C@@H]1O[C@H](CO)[C@@H](O)[C@H]1O [Compound 36, 8-(2-phenylethyl)adenosine] | – | – | – | – | inactive | – | – |
| 2-ethyl-(1,12-dicarba-closo-dodecaboran-2-yl)arabinoadenosine [Compound 49] | – | – | 27 ± 9% | 12 ± 14% | – | – | percent of inhibition, A3 AR [3]: 25 ± 8% |
| Nc1nc(CCc2ccccc2)nc2c1ncn2[C@@H]1O[C@H](CO)[C@@H](O)[C@H]1O [Compound 46] | – | – | – | – | inactive | not selective | – |
| Nc1nc(C#Cc2ccccc2)nc2c1ncn2[C@@H]1O[C@H](CO)[C@@H](O)[C@@H]1O [Compound 48] | – | – | – | – | active | A3 selective | – |
| 8-[2-(1,12-dicarba-closo-dodecaboran-1-yl)ethynyl] adenosine [Compound 33] | – | – | 29 ± 7% | 17.1 ± 8% | inactive | – | percent of inhibition, A3 AR [3]: 48 ± 12% |
| Nc1nc(CCc2ccccc2)nc2c1ncn2[C@@H]1O[C@H](CO)[C@@H](O)[C@@H]1O [Compound 50] | – | – | – | – | inactive | – | – |
| N^6-(3-phenylpropyl)-2-chloro-2′-deoxyadenosine [Compound 28] | – | – | – | – | – | – | percent of inhibition, A2A AR [6]: 14 ± 2 %^a; percent of inhibition, A2B AR [7]: 1 ± 1 %^a |
| Nc1ncnc2c1nc(C#Cc1ccccc1)n2[C@@H]1O[C@H](CO)[C@@H](O)[C@H]1O [Compound 34, 8-(2-phenylethynyl)adenosine] | – | – | – | – | active | A3 selective | inhibition at 10 µM ([2]; read-out: percent of inhibition, A1 AR): 11 ± 3% |
| Nc1nc(C#Cc2ccccc2)nc2c1ncn2[C@@H]1O[C@H](CO)[C@@H](O)[C@H]1O [Compound 42, 2-Phenylethynyladenosine] | – | – | – | – | active | not selective | – |
| N^6-[(1,12-dicarba-closo-dodecaboran-1-yl)but-4-yl]adenosine [Compound 7] | 686.5 ± 66.1 arbitrary units | 642.8 ± 45.4 arbitrary units | – | – | – | – | KB (antagonist mode; functional character at A3) [9]: no antagonist; % Emax [9]: 103%; EC50 [9]: 271 nM; percent of inhibition, A1 AR [5]: 29 ± 1 %^a; percent of inhibition, A2A AR [6]: 2 ± 1 %^a; percent of inhibition, A2B AR [7]: 1 ± 1 %^a; activity class (active / inactive) in selectivity analysis [8]: active; receptor selectivity class [8]: A3 AR selective; Ki [8]: 444 nM |
| 2′-O-(1,12-dicarba-closo-dodecaboran-1-yl)propyleneoxymethyl]-adenosine [Compound 37] | 661.1 ± 61.3 arbitrary units | 616.0 ± 24.7 arbitrary units | 6 ± 10% | 7 ± 2% | – | – | percent of inhibition, A3 AR [3]: 19 ± 14% |
| N^6-[3-(1,12-dicarba-closo-dodecaboran-1-yl)propyl]-2-chloroadenosine [Compound 23] | 715.3 ± 85.8 arbitrary units | 657.0 ± 67.2 arbitrary units | – | – | – | – | percent of inhibition, A2A AR [6]: 1 ± 1 %^a |
